Laboratory results: ChEMBL document CHEMBL1151026, “Synthesis and pharmacological evaluation of the enantiomers of the dopamine autoreceptor agonist PD 135385” (Bioorg Med Chem Lett, 1993)

Experiments:
[1] = system: Rattus norvegicus; assay: Tested for locomotor activity (LMA) in rat by peroral administration; format: functional; settings: po
[2] = system: Mus musculus; assay: Tested for locomotor activity (LMA) in mouse by intraperitoneal administration; format: functional; settings: ip
[3] = molecular target: T1, D(2) dopamine receptor (Rattus norvegicus, UniProt P61169); assay: Displacement of [3H]spiperone from rat striatal Dopamine receptor D2
T1 sequence (P61169 whole entry): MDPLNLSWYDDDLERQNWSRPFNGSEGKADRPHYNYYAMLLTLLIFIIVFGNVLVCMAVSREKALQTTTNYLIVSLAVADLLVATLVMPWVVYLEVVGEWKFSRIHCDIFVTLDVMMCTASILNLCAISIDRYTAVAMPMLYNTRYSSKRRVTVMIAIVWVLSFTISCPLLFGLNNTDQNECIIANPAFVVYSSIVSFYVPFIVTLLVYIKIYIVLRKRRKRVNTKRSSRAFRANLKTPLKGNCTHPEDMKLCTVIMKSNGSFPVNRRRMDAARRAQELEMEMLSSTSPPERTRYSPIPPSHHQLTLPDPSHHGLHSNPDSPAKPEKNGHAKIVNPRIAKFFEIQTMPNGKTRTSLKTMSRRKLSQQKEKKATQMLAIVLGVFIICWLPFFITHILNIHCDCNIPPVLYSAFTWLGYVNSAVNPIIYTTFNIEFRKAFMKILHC

[4] = system: Rattus norvegicus; assay: Tested for locomotor activity (LMA) in rat by peroral administration for the dose for the dose of >10 mg/kg; format: functional; settings: po
[5] = system: Mus musculus; assay: Tested for locomotor activity (LMA) in mouse by intraperitoneal administration for the dose >30 mg/kg; format: functional; settings: ip
[6] = system: Rattus norvegicus; assay: Percent reversal of the increase inDOPA levels in the striatum of GBL-treated rats at 10 mg/kg administered intraperitoneally; format: functional; settings: route intraperitoneal; for Reversal % at 10 mg/kg: ip
[7] = molecular target: D(1A) dopamine receptor (Rattus norvegicus, UniProt P18901); assay: In vitro antagonist binding affinity was determined by displacing the [3H]-SCH- in rat striatal Dopamine receptor D1
D(1A) dopamine receptor, sequence (P18901 whole entry): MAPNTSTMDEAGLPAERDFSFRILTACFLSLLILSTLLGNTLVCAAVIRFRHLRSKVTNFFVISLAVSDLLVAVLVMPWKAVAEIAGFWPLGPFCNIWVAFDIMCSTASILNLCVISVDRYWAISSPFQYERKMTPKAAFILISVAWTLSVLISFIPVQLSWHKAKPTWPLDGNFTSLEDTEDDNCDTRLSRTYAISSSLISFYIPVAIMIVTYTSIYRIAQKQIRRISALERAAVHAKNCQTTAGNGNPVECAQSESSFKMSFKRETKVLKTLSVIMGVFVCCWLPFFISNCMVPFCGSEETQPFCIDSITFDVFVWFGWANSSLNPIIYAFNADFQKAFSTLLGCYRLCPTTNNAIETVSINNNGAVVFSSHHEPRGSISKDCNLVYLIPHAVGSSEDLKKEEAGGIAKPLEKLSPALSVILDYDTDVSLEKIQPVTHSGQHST

[8] = system: Rattus norvegicus; assay: Tested for % rats with stereotypy at the dose of 20 mg/Kg administered perorally; format: functional
[9] = system: Rattus norvegicus; assay: Percent reversal of the increase inDOPA levels in the striatum of GBL-treated rats when administered intraperitoneally was determined; format: functional; settings: ip
[10] = system: Rattus norvegicus; assay: Tested for inhibition of dopamine neuronal firing in rat at the dose of 2.5 mg/Kg by intraperitoneal administration; format: functional; settings: ip
[11] = molecular target: T1, D(2) dopamine receptor; assay: In vitro agonist binding affinity was determined by displacing the [3H]N-propylnorapomorphine ([3H]NPA) in rat striatal Dopamine receptor D2
[12] = system: Rattus norvegicus; assay: Tested for locomotor activity in rat by peroral administration; format: functional; settings: po
[13] = system: Rattus norvegicus; assay: Tested for % rats with stereotypy at the dose of 61 mg/Kg administered perorally; format: functional
[14] = system: Rattus norvegicus; assay: Tested for locomotor activity in Rat by peroral administration; format: functional; settings: po
[15] = system: Rattus norvegicus; assay: Tested for % rats with stereotypy at the dose of 67 mg/Kg administered perorally; format: functional
[16] = system: Rattus norvegicus; assay: Tested for % rats with stereotypy at the dose of 116 mg/Kg administered perorally; format: functional
[17] = system: Rattus norvegicus; assay: Tested for inhibition of Dopamine neuronal firing in rat at the dose of 2.5 mg/Kg by intraperitoneal administration; format: functional; settings: ip
[18] = system: Rattus norvegicus; assay: Tested for inhibition of dopamine neuronal firing in rat at the dose of 0.25 mg/Kg by intraperitoneal administration; format: functional; settings: ip
[19] = system: Rattus norvegicus; assay: Tested for % rats with stereotypy at the dose of 0.3 mg/Kg subcutaneous administration; format: functional
[20] = system: Rattus norvegicus; assay: Tested for locomotor activity in rat by subcutaneous administration; settings: sc

IC50 [3] [nM]	SMILES	ED50 [1] [mg/kg]	ED50 [2] [mg/kg]	Reversal [6] [%]	IC50 [7] [µM]	IC50 [11] [nM]	ED50 [12] [mg/kg]	other results
352	C1=C(c2cccs2)CCC(N2CCN(c3ccccn3)CC2)C1 (stereo not drawn)	> 30	9.3					
~10000	C1=C(c2ccccc2)CCC(CN2CCN(c3ccccn3)CC2)C1 (stereo not drawn)		~30					
128	C1=C(c2ccccn2)CCC(CCN2CCN(c3ccccn3)CC2)C1 (stereo not drawn)			89				ED50 [4]: ~3 mg/kg; ED50 [5]: 0.4 mg/kg
	C1=C(c2ccccc2)CCC(CCN2CCN(c3ccccn3)CC2)C1 (stereo not drawn)	6.7	2.1	50				
436	C1=C(c2cccs2)CCC(CCN2CCN(c3ccccn3)CC2)C1 (stereo not drawn)	13	8.4	46				
1180	C1=C(c2ccccn2)CCC(N2CCN(c3ccccn3)CC2)C1 (stereo not drawn)	5.8	0.9	75				
600	C1=C(c2ccccc2)CCC(N2CCN(c3ccccn3)CC2)C1 (stereo not drawn)	> 30	1					
2430	C1=C(c2cccs2)CCC(CN2CCN(c3ccccn3)CC2)C1 (stereo not drawn)		> 30					
	CN1CCc2cccc3c2[C@H]1Cc1ccc(O)c(O)c1-3 [APOMORPHINE]						> 30	inhibition in vivo at 0.25 mg/kg [18]: 100%; ED50 [9]: 0.3 mg/kg; Activity [19]: 100%; ED50 [20]: 0.03 mg/kg

SMILES	IC50 [3] [nM]	ED50 [1] [mg/kg]	ED50 [2] [mg/kg]	Reversal [6] [%]	IC50 [7] [µM]	IC50 [11] [nM]	ED50 [12] [mg/kg]	other results
CN1CCC=C2c3nc(N)sc3CCC21 (racemic)	2920				> 10	202	0.8	Activity [8]: 0%; ED50 [9]: 0.7 mg/kg; inhibition in vivo at 2.5 mg/kg [10]: 99%
C1=C(c2ccccc2)CC[C@H](CCN2CCN(c3ccccn3)CC2)C1	704				> 6	82		Reversal % at 10 mg/kg [6]: 49%; inhibition in vivo at 2.5 mg/kg [10]: 38%; Activity [13]: 0%; ED50 [14]: 6.1 mg/kg
C1=C(c2ccccc2)CCC(CCN2CCN(c3ccccn3)CC2)C1 (racemic)	412				> 6	88	6.7	Activity [15]: 0%; Reversal % at 10 mg/kg [6]: 50%; inhibition in vivo at 2.5 mg/kg [10]: 41%
C1=C(c2ccccc2)CC[C@@H](CCN2CCN(c3ccccn3)CC2)C1	545				> 6	64	9.1	Activity [16]: 60%; inhibition in vivo at 2.5 mg/kg [17]: 58%; Reversal % at 10 mg/kg [6]: 57%
